# Assays:
# rat aorta = experiment: Vasodilating effect on blood vessel isolated from white rats (methoxamine-constricted aortic rings); conditions: for IC50: isolated rat aorta constricted with methoxamine (3 μM), endothelium removed, read-out: Concentration for inhibition of constriction induced by methoxamine in rat arota (IC50); for weaker vasorelaxation effect than that of BMS-180448 (times): ratio of IC50 versus BMS-180448
# Source text: White rats (350˜450 g; the Experimental Animal Team of the Korea Research Institute of Chemical Technology) were knocked to be unconscious by hitting the occipital region, sacrificed by cervical dislocation, and underwent thoracotomy. After being quickly removed, the thoracic aorta was deprived of the adipose tissue and cut into aortic rings of 3 mm width. The aorta was lightly rubbed with cotton club soaked in a modified Krebs Henseleit buffer (physiological salt solution) to remove the inner […] layer therefrom. While being hung in an organ bath containing a physiological buffer, the vascular smooth muscle was allowed to equilibrate under a resting tension of 2 g and then, stand for 1 hour at 37° C. for stabilization, supplying a carbogen consisting of 95% O2/5% CO2. Thereafter, the vascular smooth muscle was constricted with 10^−5 M phenylephrine and washed several times with physiological saline solution. The said procedure was repeated to ensure the stable reactivity of vascular smooth muscle to repetitive constriction/relaxation.
# Thereafter, 3×10^−6 M methoxamine was applied to induce an intensive constriction in the vascular smooth muscle. When the vasoconstriction induced by the methoxamine was reached and maintained to a maximum, test compounds and control material were cumulatively added to the organ bath with concentration of 1, 3, 10 and 30 μM, respectively, to examine the vasodilating effect. Cromakalim and BMS-180448 (compound of <Formula 2>), known to be the first generation KATP opener with potent vasodilating effect, were used as control materials.
# The change rate of constriction by the addition of the drugs compared to the maximal constriction induced by methoxamine was calculated to plot a concentration-relaxation response curve. Through a least linear regression analysis, IC50 that the drug concentration at which the vascular tissue is relaxed to 50% extent of the maximal constriction, was obtained for each drug. And the results were shown in the below Table 1.
# isolated rat hearts = experiment: Cardioprotective effect on isolated ischemic heart models of white rats (Langendorff, global ischemia-reperfusion); conditions: 10 μM; for LVDP × HR (left ventricular developed pressure × heart rate), % of pre-treatment / EDP (left ventricular end diastolic pressure): 30 min global ischemia, 30 min reperfusion; for EDP (left ventricular end diastolic pressure): baseline 5 mmHg; for LDH (concentration of lactate dehydrogenase, reperfusion release): after 30 min reperfusion; for TTC (time to contracture / time to induce contraction): during 30 min global ischemia, first 5 mmHg increase in EDP
# Procedure: 100 mg/kg of sodium pentobarbital was injected in abdominal cavity of white male rats (300˜450 g; the experimental animal team of the Korea Research Institute of Chemical Technology) to anesthetize them. Then, an intravenous injection of 1000 U/kg of heparin was performed before taking out heart. Particularly, cannula(PE 240) was inserted in the trachea, and artificial respiration was tried upon the rat by using a rodent ventilator. Under that condition, aortic cannula was inserted in the aorta and heart was taken out under retrograde perfusion. The extracted heart was hung on Langendorff apparatus quickly and unnecessary tissues on heart were removed. Perfusion was induced under static pressure (85 mmHg) with 37° C. modified Krebs-Henseleit bicarbonate buffer (composition <mM/L>: 116 NaCl, 4.7 KCl, 1.1 MgSO4, 1.17 KH2PO4, 24.9 NaHCO3, 2.52 CaCl2, 8.32 Glucose, 2.0 Pyruvate) saturated with 95% O2/5% CO2. A metal cannula, to which a latex balloon filled with a ethanol-distilled water mixture (1:1 vol/vol) was linked, was inserted in left ventricle through pulmonary vein. Then, left ventricular pressure transmitted through the balloon was transduced by using pressure transducer, and amplified by using isovolumetric amplifier(Plugsys bridge amplifier). Then, the pressure was recorded in a recorder (Linearcorder mark 8 WR 3500). Thereafter, heart was stabilized for 15 minutes. Then, left ventricular end diastolic pressure (LVEDP) was given by 5 mmHg and such volume of the balloon was kept throughout the experiments.
# Baseline cardiac contractile function, heart rate (HR), and coronary flow (CF) were measured. Cardiac contractile function was calculated by […], yielding LVDP (left ventricular developed pressure). Double product RPP (rate-pressure product)(DP), another important parameter for indirectly assessing cardiac performance in Langendorff heart, in which cardiac output could not be measured ordinarily, was calculated by multiplying HR by LVDP. Throughout the experiment, total coronary blood flow was measured by the use of coronary flow probe (diameter: 1.0 mm) installed in aortic cannula with electromagnetic flowmeter. Temperature of heart was steadily maintained by immersing the heart at 37° C. in physiological saline solution to which 95% O2/5% CO2 was constantly supplied. After stabilization for 15 min, the hearts were pre-treated for 10 min with vehicle (0.04% DMSO) only or a compound of the present invention or the control material in the vehicle. Thereafter, cardiac contractile function, HR and CF were repeatedly measured. Global ischemia was induced by completely shutting off the perfusate for 30 min. Severity of ischemia was determined as the time to contracture (TTC, min) during global ischemia in which the first 5 mmHg increase in EDP was observed. Then, the hearts were reperfused and, 30 min later, contractile functions (LVDP, HR and CF) were repeatedly measured. After reperfusion was accomplished for 30 min, LDH (lactate dehydrogenase) was measured with a kit as a sensitive index for loss of cell viability.
Compound,IC50 (rat aorta) [µM],weaker vasorelaxation effect than that of BMS-180448 (times) (rat aorta),"LVDP × HR (left ventricular developed pressure × heart rate), % of pre-treatment (isolated rat hearts) [%]",EDP (left ventricular end diastolic pressure) (isolated rat hearts) [mmHg],"LDH (concentration of lactate dehydrogenase, reperfusion release) (isolated rat hearts) [unit/g]",TTC (time to contracture / time to induce contraction) (isolated rat hearts) [min],weaker vasorelaxation effects than that of Cromakalim (times) (rat aorta; ratio of IC50 versus Cromakalim)
"COC(OC)[C@@]1(C)Oc2ccc([N+](=O)[O-])cc2[C@H](n2c(=NC#N)[nH]c3ccccc32)[C@H]1O [Example 1, (2S, 3R, 4S)-6-nitro-3,4-dihydro-3-hydroxy-2-dimethoxymethyl-2-methyl-4-(2,3-dihydro-2-cyanoimino-1H-benzimidazol-1-yl)-2H-1-benzopyran]",50.1,36,68.8,20.3,8.1,23.2,–
"COC(OC)[C@@]1(C)Oc2ccc([N+](=O)[O-])cc2[C@H](n2c(=O)[nH]c3ccccc32)[C@H]1O [Example 18, (2S, 3R, 4S)-6-nitro-3,4-dihydro-3-hydroxy-2-dimethoxymethyl-2-methyl-4-(2,3-dihydro-2-oxo-1H-benzimidazol-1-yl)-2H-1-benzopyran]",–,–,41.5,29.3,20.4,24.2,–
"CC1(C)Oc2ccc(C#N)cc2C(N2CCCC2=O)C1O (centres unmarked) [Cromakalim, reference compound]",0.067,–,–,–,–,–,–
"CC1(C)Oc2ccc([N+](=O)[O-])cc2[C@H](n2c(=O)[nH]c3ccccc32)[C@H]1O [Example 20, (3R, 4S)-6-nitro-3,4-dihydro-3-hydroxy-2,2-dimethyl-4-(2,3-dihydro-2-oxo-1H-benzimidazol-1-yl)-2H-1-benzopyran]",18.6,10,55.5,29.0,20.7,23.9,–
"CC1(C)Oc2ccc(C#N)cc2[C@@H](NC(=NC#N)Nc2ccc(Cl)cc2)[C@@H]1O [BMS-180448, reference compound]",1.38,–,67.6,16.5,17.2,27.8,twenty times weaker

# Reference: US7309793B2, “Benzopyran derivatives substituted with a benzimidazole derivative, pharmaceutically acceptable salts therof, their preparations and pharmaceutical compositions containing them” (Dongbu Hannong Chemical Co., Ltd., priority 2003, dated 2007)
